In patent US20120295893A1, “COMPOSITIONS AND METHODS OF COUNTERACTING RESIDUAL SEDATIVE EFFECTS OF SLEEP/ HYPNOTIC DRUGS” (COERULEUS LTD., priority 2009, published 2012):
Where “and” joins values, the source holds several entries; their conditions need not be identical. Identical values can stand only once.

Tests used:
[1] = test system: diazepam-induced sedative-hypnotic effects; test: Main phase: Sleeping Time (regaining of Righting Reflex) after diazepam induction; format: in vivo, rat; details: IV, two administrations at 2 min interval after diazepam
Description: (§1) The main phase consisted of 4 groups of n=8 male and female SD rats/group. Induction of sedative-hypnotic effects, as measured by Sleeping Time and locomotor activity, was carried out by two intravenous injections of diazepam at an interval of approximately 2 minutes. The Test, Reference and Control Items were administered twice at interval of 2 minutes as well, about 5 minutes after the second dose of diazepam. Both Test Items FLUMUP-F22 (F22, Table 26 below) and FLUMUP-F26 (F26, Table 26 below) were administered by the sublingual route at a constant dose volume of 0.1 ml/animal per administration. An additional group was administered with FLUMUP Placebo under identical experimental conditions and served as a Control group. A fourth group was subjected to IV injection of the Reference Item under identical experimental conditions. Animals were placed in the activity cage immediately following arousal from ‘Sleep’ or 10 minutes post the second dose of the respective treatment if arousal was not evident.
Males were injected with an initial dose level of 15 mg/kg and approximately 2 minutes later an addition of 5 mg/kg was administered. […]
Sleeping time was determined for all animals.
Evaluation was based on the relative recorded changes in the measured Sleeping Time and locomotor activity, obtained from the Test & Reference Items-treated animals vs. those of the Control Item group. […]

[2] = test system: diazepam-induced sedative-hypnotic effects; test: Main phase: locomotor activity in activity cage after diazepam induction; format: in vivo, rat
Description: as §1
Males were injected with an initial dose level of 15 mg/kg and approximately 2 minutes later an addition of 5 mg/kg was administered. Females were injected with an initial dose level of 20 mg/kg and approximately 2 minutes later an addition of 5 mg/kg.
(i) The Test and Control Items were administered by the sublingual route twice at an interval of approximately 2 minutes about 5 minutes post the second injection of diazepam. (ii) The Reference Item flumazenil USP was injected twice intravenously at an interval of approximately 2 minutes about 5 minutes post the second injection of diazepam. The Test, Reference and Control Items were administered at a constant dose volume of 0.1 ml/animal per administration over approximately 15 seconds.
Each rat was placed in the center of a special designed commercial activity cage, measuring 40×40×46 cm (TruScan Photo Beam Activity System-Coulbourn Instruments, Allentown, Pa., USA) for a duration of 15 minutes.
Evaluation was based on the relative recorded changes in the measured Sleeping Time and locomotor activity, obtained from the Test & Reference Items-treated animals vs. those of the Control Item group. Data analysis of all measurable parameters was performed by the use of the following methods in order to determine significance of treatment effects: Software: GraphPad Instat®—Version 3.02 (Statistical Method: 1-Way ANOVA; Dunnett Multiple Comparisons Test for locomotor activity parameters; Kruskal-Wallis Test for Sleeping Time data) Microsoft” Excel 2000.

[3] = Clinical study: vital signs and safety assessments; details: Baseline sleep (after hypnotic, before oral spray); for Pulse rate: 10 subjects per hypnotic
[4] = test system: sleep/hypnotic effect of zolpidem or brotizolam; test: Clinical study: Profile Of Mood States (POMS) Brief form; details: Baseline sleep (after hypnotic, before oral spray)
[5] = test system: sleep/hypnotic effect of zolpidem or brotizolam; test: Clinical study: digit symbol substitution test (DSST); details: Baseline sleep (after hypnotic, before oral spray)
[6] = test system: sleep/hypnotic effect of zolpidem or brotizolam; test: Clinical study: immediate Word Recall Test (iWRT); details: Baseline sleep (after hypnotic, before oral spray)
[7] = test system: sleep/hypnotic effect of zolpidem or brotizolam; test: Clinical study: Visual Analogue Scale (sleepiness/vigilance, ability to focus, effectiveness); details: Baseline sleep (after hypnotic, before oral spray)
[8] = test system: Sprague-Dawley™ (SD) rats; test: Preliminary phase: induction of 'Sleep' by IV diazepam (dose finding); details: for mortality after diazepam injection: FDC = Found Dead in the Cage
[9] = in vivo, po; cited from earlier work

SMILES	Diastolic BP [3]	Systolic BP [3]	Pulse rate [3]	POMS- fatigue [4]	POMS-Alertness [4]	DSST [5]	iWRT [6]	Effectiveness [7]	Focus ability [7]	Vigilance [7]	further results
CCOC(=O)c1ncn2c1CN(C)C(=O)c1cc(F)ccc1-2 [Reference Item]	–	–	–	–	–	–	–	–	–	–	regaining of Righting Reflex (Sleeping Time) [1]: regained their righting reflex very shortly following injection; area of the cage where rats moved or stayed ([2]; Area 1 peripheries (normal behavior), Area 2 central, FIG. 11): stayed in the central area of the cage; locomotor activity ([2]; after regaining righting reflex, males and females): very low and similar to that of the control animals; total distance versus Control group ([2]; female rats, 15 min session, diazepam 20+5 mg/kg IV): No statistical significant difference; mean group time spent in the extent of the activity cage versus controls ([2]; male rats): relatively higher; total distance, mean group values versus Control group ([2]; male rats, 15 min session, diazepam 15+5 mg/kg IV): only one out of the four males exhibited higher values
Cc1nnc2n1-c1sc(Br)cc1C(c1ccccc1Cl)=NC2 [Brotizolam]	69.0 ± 2.8	116.9 ± 4.8	69.8 ± 1.8	7.2 ± 1.2	4.3 ± 1.0	76.3 ± 7.7	7.6 ± 1.3	2.3 ± 0.3	2.4 ± 0.4	2.3 ± 0.4	–
CN1C(=O)CN=C(c2ccccc2)c2cc(Cl)ccc21 [Diazepam]	–	–	–	–	–	–	–	–	–	–	additional duration of 'Sleep' after supplement dose ([8]; female rat, 20 mg/kg then supplement 5 mg/kg IV): 1180 s; mortality after diazepam injection ([8]; female rat, single dose 25 mg/kg IV, 25 mg/kg): died immediately following injection and FDC; mortality after diazepam injection ([8]; female rat, single dose 25 mg/kg IV, listed as diazepam, 25 mg/kg): death; duration of induced 'Sleep' ([8]; female rats, diazepam 20 mg/kg IV, individual animals): 240 s and 180 s; additional duration of 'Sleep' after supplement dose ([8]; male rat, 15 mg/kg then supplement 5 mg/kg IV): 850 s; duration of induced 'Sleep' ([8]; male rat, diazepam 10 mg/kg IV, single animal): 46 s; duration of induced 'Sleep' ([8]; male rat, diazepam 15 mg/kg IV, single animal): 130 s; duration of induced 'Sleep' ([8]; male rat, diazepam 20 mg/kg IV, single animal): 1700 s; mortality after diazepam injection ([8]; male rat, single dose 20 mg/kg IV, 20 mg/kg): died immediately following injection and FDC; mortality after diazepam injection ([8]; male rat, single dose 20 mg/kg IV, listed as diazepam, 20 mg/kg): death
Cc1ccc(-c2nc3ccc(C)cn3c2CC(=O)N(C)C)cc1 [Zolpidem]	71.4 ± 1.9	119.5 ± 4.0	77.5 ± 3.5	9.3 ± 1.4	1.9 ± 1.0	62.5 ± 3.6	4.1 ± 0.3	1.5 ± 0.4	1.5 ± 0.4	1.4 ± 0.3	oral bioavailability [9]: 70%
